Series [1] has as its system Plasmodium falciparum. Nature of the series: Antimalarial activity against Plasmodium falciparum 3D7 in human erythrocytes after 48hrs by [3H]hypoxanthine uptake. It counts as functional, organism-based.
Series [2] is described as follows: Selectivity index, ratio of CC50 for human K562 cells to IC50 for Plasmodium falciparum 3D7. Format: functional.
The nature of series [3]: Selectivity index, ratio of CC50 for human K562 cells to IC50 for Toxoplasma gondii RH-beta1. It counts as functional.
Series [4] relates to Toxoplasma gondii. Nature of the series: Antitoxoplasmal activity against Toxoplasma gondii RH-beta1 in HFF cells assessed as beta-galactosidase activity after 48 to 72 hrs by colorimetric microtiter assay. Format: functional, organism-based.
The nature of series [5]: (§1) Cytotoxicity against human K562 cells assessed as radioactive thymidine incorporation after 24 hrs. Format: cell-based. The note with it: K562 cells. (In general: Incorporation of labelled thymidine or its analogues reports DNA synthesis.)
Series [6] deals with K562. The description is as §1. It counts as cell-based. As to conditions: k562, 24 h; for CC50: 24 h.
The subject of series [7] is Plasmodium falciparum. Description: Antimalarial activity against Plasmodium falciparum K1. Format: functional, organism-based.
Setting [8] is: Toxoplasma gondii, RH-beta1, HFF.

With `CCCCCCCCCCOC(=O)C[C@H]1C[C@H](O)C[C@@]2(CCC3(C=CC(=O)C=C3)O2)O1` (stereo in doubt), the IC50 (as a rule, the midpoint of a concentration-inhibition curve) amounted to 654 nM in series [1] (Plasmodium falciparum, 3D7) and 341 nM in series [4] (setting [8]). Further, the “Selectivity Index” value in series [2] and in series [3] was 35 in each case. Further, the CC50 – broadly, the concentration that lowers cell viability or growth by half – at 24 h in series [5] stood at 28.2 µM.
For the molecule `CCCCCCCCCCCCCCCCCCOC(=O)C[C@H]1C[C@@H](O)C[C@]2(CCC3(C=CC(=O)C=C3)O2)O1` (racemic), the half-maximal inhibitory concentration (IC50) in series [1] (Plasmodium falciparum, 3D7) is 1130 nM; in series [4] (setting [8]) it was 3520 nM. The “Selectivity Index” value in series [2] and in series [3] was 35 in each case. Moreover, the CC50 at 24 h in series [5] turned out to be 15.6 µM.
As to `O=C1C=CC2(C=C1)CC[C@]1(C[C@@H](O)C[C@@]3(CCC4(C=CC(=O)C=C4)O3)O1)O2`, the IC50 in series [1] (Plasmodium falciparum, 3D7) is 414 nM; in series [4] (setting [8]) it was 173 nM. Besides, the “Selectivity Index” value in series [2] and in series [3] was 35 each time. Further, in series [5], the half-maximal cytotoxic concentration (CC50) at 24 h was 0.39 µM.
Regarding `CCCCCCC(=O)OC1C[C@]2(CCC3(C=CC(=O)C=C3)O2)O[C@]2(CCC3(C=CC(=O)C=C3)O2)C1` (some centres undefined), the midpoint of inhibition in series [1] (Plasmodium falciparum, 3D7), the IC50, lay at 331 nM. Also, in series [3], the “Selectivity Index” value was determined as 35. Also, in series [5], the cytotoxic concentration (CC50) at 24 h was below 0.38 µM.
On to `CCCCCCCCCCCCCC(=O)O[C@@H]1C[C@]2(CCC3(C=CC(=O)C=C3)O2)O[C@]2(CCC3(C=CC(=O)C=C3)O2)C1`, for which the IC50 in series [1] (Plasmodium falciparum, 3D7) was 81 nM; in series [4] (setting [8]), 346 nM. For the same molecule, the “Selectivity Index” value in series [2] worked out at 109. The cytotoxic concentration (CC50) at 24 h in series [5] was 8.75 µM.
In turn, `CCCCCCCCCCCCCC(=O)CC(=O)O[C@@H]1C[C@]2(CCC3(C=CC(=O)C=C3)O2)O[C@]2(CCC3(C=CC(=O)C=C3)O2)C1` registered an IC50 in series [1] (Plasmodium falciparum, 3D7) of 120 nM. The “Selectivity Index” value in series [2] and in series [3] was 35 in each case. In addition, in series [5], the cytotoxic concentration (CC50) at 24 h was below 0.38 µM.
As to `CCCCCCCCCCCCCC1C[C@H](O)CC2(CCC3(C=CC(=O)C=C3)O2)O1` (single isomer, unassigned), the IC50 in series [1] (Plasmodium falciparum, 3D7) turned out to be 329 nM; in series [4] (setting [8]) it was 627 nM. For the same molecule, the “Selectivity Index” value in series [2] is 35. Moreover, the CC50 at 24 h in series [5] was 22.1 µM.
For `CCCCCCCCCCCCCCCCCCOC(=O)C[C@H]1C[C@H](O)C[C@@]2(CCC3(C=CC(=O)C=C3)O2)O1` (racemic), the IC50 was found to be 770 nM in series [1] (Plasmodium falciparum, 3D7) and 2400 nM in series [4] (setting [8]). The “Selectivity Index” value in series [2] and in series [3] was 35 throughout. The cytotoxic concentration (CC50) at 24 h in series [5] amounted to 13.9 µM.
Regarding `CCCCCCCCCCC(CCCCCCCCCC)OC(=O)C[C@H]1C[C@H](O)C[C@@]2(CCC3(C=CC(=O)C=C3)O2)O1` (racemic), the 50% inhibitory concentration (IC50) in series [1] (Plasmodium falciparum, 3D7) came out at 1150 nM; in series [4] (setting [8]), 4450 nM. Further, the “Selectivity Index” value in series [2] and in series [3] was 35 throughout. Besides, the 50% cytotoxic concentration (CC50) at 24 h in series [5] was 22.1 µM.
Take `O=C1C=CC2(C=C1)CC[C@]1(CC(O)C[C@]3(CCC4(C=CC(=O)C=C4)O3)O1)O2` (some centres undefined): the IC50 in series [1] (Plasmodium falciparum, 3D7) turned out to be 584 nM; in series [4] (setting [8]), 1500 nM. Further, the “Selectivity Index” value in series [3] is reported as 35. In addition, the Activity result in series [6] is given as “Toxic”.
As to `CCCCCCCCCCCCC[C@@H]1CC(O)CC2(CCC3(C=CC(=O)C=C3)O2)O1` (single isomer, unassigned; form 3) [ACULEATINS B], the IC50 in series [1] (Plasmodium falciparum, 3D7) was 366 nM; in series [4] (setting [8]), 400 nM. Further, the “Selectivity Index” value in series [2] and in series [3] was 35 throughout. Further, the CC50 at 24 h in series [5] was found to be 30.8 µM.
Turning to `CCCCCCCCCCCCCC(=O)OC1C[C@]2(CCC3(C=CC(=O)C=C3)O2)O[C@]2(CCC3(C=CC(=O)C=C3)O2)C1` (some centres undefined), the IC50 in series [1] (Plasmodium falciparum, 3D7) was determined as 92 nM; in series [4] (setting [8]) it was 636 nM. Besides, in series [2], the “Selectivity Index” value is listed as 123. The CC50 at 24 h in series [5] was found to be 11.3 µM.
Take `CCCOC(=O)C[C@H]1C[C@H](O)C[C@@]2(CCC3(C=CC(=O)C=C3)O2)O1` (racemic): the IC50 in series [1] (Plasmodium falciparum, 3D7) was 1840 nM; in series [4] (setting [8]), 500 nM. For the same molecule, in series [3], the “Selectivity Index” value was 219. Besides, the CC50 at 24 h in series [5] worked out at 109 µM.
In series [1] (Plasmodium falciparum, 3D7), `CCCCCCC(=O)O[C@@H]1C[C@]2(CCC3(C=CC(=O)C=C3)O2)O[C@]2(CCC3(C=CC(=O)C=C3)O2)C1` displayed an IC50 of 343 nM. In addition, the “Selectivity Index” value in series [2] and in series [3] was 35 in each case. Besides, the CC50 at 24 h in series [5] was below 0.38 µM.
On to `CCN(CC)CCCC(C)Nc1ccnc2cc(Cl)ccc12` (centres undefined) [CHLOROQUINE], for which, in series [5], the CC50 at 24 h came to 9.7 µM.
Regarding `CCCCCCCCCCCCCCCCCCOC(=O)C[C@H]1C[C@@H](O)C[C@@]2(CCC3(C=CC(=O)C=C3)O2)O1` (racemic), the concentration for half-maximal inhibition (IC50) in series [1] (Plasmodium falciparum, 3D7) was 1030 nM; in series [4] (setting [8]), 3540 nM. Besides, the “Selectivity Index” value in series [2] and in series [3] was 35 each time. Also, the CC50 at 24 h in series [5] amounted to 17.5 µM.
On to `CCCCCCCCCCCCC[C@@H]1CC(O)CC2(CCC3(C=CC(=O)C=C3)O2)O1` (single isomer, unassigned; form 1) [ACULEATINS B], for which the IC50 in series [1] was 451 nM; in series [4] (hff) it was 377 nM. Further, the half-maximal cytotoxic concentration (CC50) in series [6] was 30.2 µM.
`CCCCCCCCCCCCC[C@@H]1C[C@@H](O)C[C@]2(CCC3(CCC(=O)CC3)O2)O1` (racemic): the IC50 in series [1] (Plasmodium falciparum, 3D7) was above 5000 nM; in series [4] (setting [8]), 11000 nM. Moreover, the “Selectivity Index” value in series [3] is given as 35. In addition, the cytotoxic concentration (CC50) at 24 h in series [5] was 25.6 µM.
With `CCCCCCCCCCOC(=O)C[C@@H]1C[C@@H](O)C[C@]2(CCC3(C=CC(=O)C=C3)O2)O1` (stereo in doubt), the half-inhibitory concentration (IC50) stood at 1360 nM in series [1] (Plasmodium falciparum, 3D7) and 1630 nM in series [4] (setting [8]). Also, the “Selectivity Index” value in series [2] is reported as 35. For the same molecule, the half-maximal cytotoxic concentration (CC50) at 24 h in series [5] stood at 41.2 µM.
Regarding `CCCCCCCCCCCCC[C@@H]1C[C@H](O)C[C@@]2(CCC3(C=CC(=O)C=C3)O2)O1`, the half-maximal inhibitory concentration (IC50) in series [1] is 288 nM; in series [4] (setting [8]), 309 nM; in series [7], 180 nM. In series [6], the half-maximal cytotoxic concentration (CC50) came out at 25.5 µM.
Consider `CCCCCCCCCCCCCC1C[C@@H](O)CC2(CCC3(C=CC(=O)C=C3)O2)O1` (single isomer, unassigned) [ACULEATIN A], for which the figures for the concentration for half-maximal inhibition (IC50) in series [1] and in series [4] (setting [8]) were 220 nM and 436 nM, respectively. The “Selectivity Index” value in series [2] and in series [3] was 35 each time. Moreover, the cytotoxic concentration (CC50) at 24 h in series [5] came to 26.7 µM.
As for `CCCCCCCCCCCCC[C@@H](O)C[C@@H](O)CC(=O)CCc1ccc(O)cc1`, in series [1] (Plasmodium falciparum, 3D7), the IC50 is above 10000 nM. In series [2], the “Selectivity Index” value was 35. In addition, the cytotoxic concentration (CC50) at 24 h in series [5] worked out at 34.5 µM.
In the case of `CCCCCCCCCCCCC[C@@H]1CC(O)CC2(CCC3(C=CC(=O)C=C3)O2)O1` (single isomer, unassigned; form 2), the concentration for half-maximal inhibition (IC50) in series [1] (Plasmodium falciparum, 3D7) worked out at 335 nM; in series [4] (hff), 436 nM. Also, the “Selectivity Index” value in series [2] and in series [3] was 35 throughout. Besides, the CC50 at 24 h in series [5] came out at 25.8 µM.
For the molecule `CCCCCCCCCCCCC[C@H]1C[C@@H](O)C[C@]2(CCC3(C=CC(=O)C=C3)O2)O1` [(+)-ACULEATIN B], the IC50 came to 454 nM in series [1] (Plasmodium falciparum, 3D7); 365 nM in series [4] (setting [8]); 430 nM in series [7]. Besides, the “Selectivity Index” value in series [2] and in series [3] was 35 in each case. Moreover, in series [5], the cytotoxic concentration (CC50) at 24 h was 27.5 µM.
Regarding `CCCCCCCCCCCCC[C@@H]1C[C@@H](O)C[C@]2(CCC3(C=CC(=O)C=C3)O2)O1` [ACULEATIN A], the IC50 in series [1] worked out at 478 nM; in series [4] (hff), 640 nM; in series [7], 1000 nM. For the same molecule, the 50% cytotoxic concentration (CC50) in series [6] was 28 µM.
On to `CCCCCCN(CCCCCC)C(=O)C[C@H]1C[C@H](O)C[C@@]2(CCC3(C=CC(=O)C=C3)O2)O1` (racemic), for which half-maximal inhibition in series [1] (Plasmodium falciparum, 3D7) (IC50) was put at 899 nM. Also, the “Selectivity Index” value in series [2] and in series [3] was 35 in each case. Further, in series [5], the CC50 at 24 h was determined as 0.39 µM.

The values above are taken from ChEMBL document CHEMBL1156632, “Enhanced antimalarial activity of novel synthetic aculeatin derivatives” (J Med Chem, 2008).
